In patent US8785416B2, “Sulphated disaccharides for the treatment of neurodegenerative and/or neurovascular diseases” (Bioiberica, S.A., priority 2009, dated 2014):

Experiments:
[1] = tested on: SH-SY5Y human neuroblastoma cells; assay: Generation of intracellular reactive oxygen species (ROS) after hydrogen peroxide, DCFDA fluorescence; format: cell-based
Excerpt: To determine the production of free radicals, the fluorescent probe 2″-7″-dichlorodihydrofluorescein diacetate (DCFDA) was used, which is sensitive to the presence of free radicals, such that when the latter are intracellularly generated there is an increase of fluorescence.
When the fluorescent probe passes into the cell, intracellular esterases hydrolyze the probe, transforming it into DCFH2. Peroxidases, cytochrome C and Fe^2+ can oxidize the probe to DCF in the presence of hydrogen peroxide, and the accumulation of DCF in the cell can be measured as an increase of fluorescence at 530 nm when it is excited at 485 nm.
SH-SY5Y human neuroblastoma cells were cultured following the procedure described in Example 3.
For the fluorescence assays, the cells were seeded in 96-well plates with opaque walls at a density of 10,000 cells/well. […]
To evaluate the effects of compound Ic on the generation of ROS, the cells were incubated with increasing concentrations of compound Ic (0.01 and 0.1 μM) for 24 hours and then they were preincubated with the fluorescent probe DCFDA for 45 minutes. Subsequently, the baseline fluorescence of each well, both of the wells containing cells and compound Ic and of those containing only the cells, was quantified. […] The baseline fluorescence of each well containing compound Ic was subtracted from it in order to obtain the net fluorescence. […]

[2] = tested on: rat hippocampal slices; assay: Oxygen and glucose deprivation (15 minutes OGD, 2 hours reoxygenation) in hippocampal slices, MTT cell viability; format: cell-based
Procedure: Male Spague Dawley strain rats (250-325 g) were used. After anaesthesia by means of an intraperitoneal injection of 60 mg/Kg sodium pentobarbital (Euta-Lender®), they were decapitated with a guillotine and the brain was extracted after a craniotomy. The brain was immediately submersed in a dissection solution, a cold (4° C.) modified Krebs-Henseleit solution at pH 7.4, the composition of which is: 120 mM NaCl, 2 mM KCl, 0.5 mM CaCl2, 26 mM NaHCO3, 10 mM MgSO4, 1.18 mM KH2PO4, 11 mM glucose and 200 mM sucrose, bubbled with 95% O2-5% CO2. The hippocampi were isolated, embedded in 2% low melting point agarose (Sigma-Aldrich), and cut into 350 μm transverse slices in a vibratome (Leica VT1000S).
After the cutting in the vibratome, the slices were transferred to a vial with sucrose-free dissection Krebs solution, bubbled with 95% O2-5% CO2 for 60 minutes (equilibrium period).
After the equilibrating period, the medium was removed and an oxygenated solution (normal Krebs solution (120 mM NaCl, 2 mM KCl, 2 mM CaCl2, 26 mM NaHCO3, 1.19 mM MgSO4, 1.18 mM KH2PO4 and 11 mM glucose), bubbled with 5% CO2 and 95% O2 for 30 minutes (preincubation period), was introduced. The baseline slices were maintained in this oxygenated solution throughout the entire experiment. To induce OGD, the oxygenated solution was replaced with another one which lacked glucose and was bubbled with a mixture of gases of 5% CO2 and 95% N2 (anoxic solution). The slices were in a bath at 37° C. After inducing OGD, the anoxic medium was replaced with another one which contained the oxygenated solution (reoxygenation period).
To evaluate the effect of the compounds, they were incubated for the 30 minutes of the preincubation and throughout the OGD and during the reoxygenation. Two OGD-reoxygenation protocols were used: (i) 1 hour of OGD and 2 hours of reoxygenation and (ii) 15 minutes of OGD followed by 2 hours of reoxygenation.
When the OGD-reoxygenation protocol (ii): 15 minutes of OGD followed by 2 hours of reoxygenation was used, the slices were incubated with increasing concentrations of compound Ic (0.3 and 1 μM) or with increasing concentrations of compound Ib (1 and 3 μM). In the same study these two compounds of the invention were compared with N-acetylcysteine (NAC) at 10 mM. The baseline (slices in the absence of compound Ic or Ib and of OGD) and the control (slices in the absence of compound Ic or Ib and with OGD) were also included.
For the protocol of 15 minutes of OGD followed by 2 hours of reoxygenation, the cell viability was evaluated by means of the tetrazolium salt MTT, which is internalized in those cells which are viable and are therefore capable of reducing the tetrazolium to formazan which is an insoluble and coloured product which is deposited in the […]. To that end, after the experiment had ended, the hippocampal slices were incubated with MTT at a final concentration of 0.5 mg/mL in a Krebs-HEPES solution (in mM: NaCl, 144; KCl, 5.9; MgCl2, 1.2; CaCl2, 2; HEPES, 10; glucose, 11; at pH 7.3) at 37° C. After 3 hours, the medium was removed and the formazan precipitated in the solution was dissolved in dimethylsulfoxide. Then, the absorbance was measured in a plate reader (Labsystems iEMS Reader MF), at 500 nm. The data were represented taking the result of the baseline slices, i.e., those not subjected to OGD, as 100% viability.

In the case of “methyl 2-acetamido-2-deoxy-3-O-(β-D-glucopyranosyluronic acid)-4,6-di-O-sulpho-α-D-glucopyranoside, trisodium salt [compound Ic]”, the “reduction in the formation of free radicals induced by hydrogen peroxide” value ([1]; 0.1 μM, 24 hours incubation before 50 μM hydrogen peroxide) is reported as 40%, the “ROS generated by hydrogen peroxide at 30 and 60 minutes” value ([1]; cells treated 24 hours with compound (0.01 and 0.1 μM) before 50 μM hydrogen peroxide) is reported as “significantly reduced” and the “maximum statistically significant protection (cell viability, MTT)” value ([2]; 1 μM, 15 minutes OGD, 2 hours reoxygenation, baseline 100%, control 67%) is reported as 93%. The “efficacy in comparison with N-acetylcysteine” value ([2]; Ic 0.3 and 1 μM, Ib 1 and 3 μM vs N-acetylcysteine 10 mM) was “higher efficacy”.
